Earlier results, collected in patent publication US10729636B2, “Compositions comprising peptide [sequence]” (NURITAS LIMITED, priority 2016, dated 2020).
Read-outs that look alike come from different tables or passages of the source.

Assays:
[1] = cited from earlier work
lipoproteins = settings: binding to lipoproteins; cited from earlier work
[2] = humans who took more vitamin E on a regular basis vs those who took less; study on nurses; cited from earlier work

Compound	half-life ([1]; in words)	half-life ([1]; in humans)	other results
CCNC(=O)[C@@H]1CCCN1C(=O)[C@H](CCCNC(=N)N)NC(=O)[C@H](CC(C)C)NC(=O)[C@@H](COC(C)(C)C)NC(=O)[C@H](Cc1ccc(O)cc1)NC(=O)[C@H](CO)NC(=O)[C@H](Cc1c[nH]c2ccccc12)NC(=O)[C@H](Cc1cnc[nH]1)NC(=O)[C@@H]1CCC(=O)N1 [buserelin]	much longer	–	–
C[C@@H](O)[C@@H]1NC(=O)[C@H](CCCCN)NC(=O)[C@@H](Cc2c[nH]c3ccccc23)NC(=O)[C@H](Cc2ccccc2)NC(=O)[C@@H](NC(=O)[C@H](N)Cc2ccccc2)CSSC[C@@H](C(=O)N[C@H](CO)[C@@H](C)O)NC1=O [octreotide]	–	about 100 min	fraction unbound (lipoproteins): 0.65
NC(=O)CC[C@@H]1NC(=O)[C@H](Cc2ccccc2)NC(=O)[C@H](Cc2ccc(O)cc2)NC(=O)[C@@H](N)CSSC[C@@H](C(=O)N2CCC[C@H]2C(=O)N[C@@H](CCCN=C(N)N)C(=O)NCC(N)=O)NC(=O)[C@H](CC(N)=O)NC1=O [vasopressin]	–	10 to 35 min	–
gonadotropin-releasing hormone	very short	–	–
vitamin E	–	–	lower incidence of heart disease [2]: 41%
